Assay results from patent US11229224B2, “Phytochemical compositions used as disinfectants and food preservatives” (priority 2012, dated 2022).

Key:
S. flexneri = experiment: Diffusion technique, inhibition zone on agar; format: cell-based, Shigella flexneri; details: 1:10 dilution of aqueous hibiscus extract, 10 μL on plate, 35±1° C., 24 h
Method: (§1) This procedure was repeated twice. […] Finally, each strain was 10-fold diluted with ISS.
(§2) 100 μL from the first dilution of the respective pathogen culture were inoculated in AST plates. Inoculum was completely distributed on agar surface by the surface extension technique. From the dry extract, a 10% solution of hibiscus calyxes was prepared with distilled water. 10 μL aliquots of this extract were placed on each inoculated plate. Four repetitions were carried out. After the extract was absorbed by agar the plates were incubated at 35±1° C. for 24 h. Finally, the diameter of each inhibition zone was measured on the inoculated surface.

P. aeruginosa = experiment: Diffusion technique, inhibition zone on agar; format: cell-based, Pseudomonas aeruginosa; details: 1:10 dilution of aqueous hibiscus extract, 10 μL on plate, 35±1° C., 24 h
Method: as §1, §2

S. typhimurium = experiment: Diffusion technique, inhibition zone on agar; format: cell-based, Salmonella typhimurium; details: 1:10 dilution of aqueous hibiscus extract, 10 μL on plate, 35±1° C., 24 h
Method: as §1, §2

V. cholerae O1 = experiment: Diffusion technique, inhibition zone on agar; format: cell-based, Vibrio cholerae O1; details: 1:10 dilution of aqueous hibiscus extract, 10 μL on plate, 35±1° C., 24 h
Method: as §1, §2

S. sonnei = experiment: Diffusion technique, inhibition zone on agar; format: cell-based, Shigella sonnei; details: 1:10 dilution of aqueous hibiscus extract, 10 μL on plate, 35±1° C., 24 h
Method: as §1, §2

S. choleraesuis = experiment: Diffusion technique, inhibition zone on agar; format: cell-based, Salmonella choleraesuis; details: 1:10 dilution of aqueous hibiscus extract, 10 μL on plate, 35±1° C., 24 h
Method: as §1, §2

Enterapathogenic E. coli = experiment: Diffusion technique, inhibition zone on agar; format: cell-based, Escherichia coli; details: 1:10 dilution of aqueous hibiscus extract, 10 μL on plate, 35±1° C., 24 h
Method: as §1, §2

Enterotoxigenic E. coli = experiment: Diffusion technique, inhibition zone on agar; format: cell-based, Escherichia coli; details: 1:10 dilution of aqueous hibiscus extract, 10 μL on plate, 35±1° C., 24 h
Method: as §1, §2

E. coli = experiment: Diffusion technique, inhibition zone on agar; format: cell-based, Escherichia coli; details: 1:10 dilution of aqueous hibiscus extract, 10 μL on plate, 35±1° C., 24 h
Method: as §1, §2

Enteroinvasive E. coli = experiment: Diffusion technique, inhibition zone on agar; format: cell-based, Escherichia coli; details: 1:10 dilution of aqueous hibiscus extract, 10 μL on plate, 35±1° C., 24 h
Method: as §1, §2

S. aureus = experiment: Diffusion technique, inhibition zone on agar; format: cell-based, Staphylococcus aureus; details: 1:10 dilution of aqueous hibiscus extract, 10 μL on plate, 35±1° C., 24 h
Method: as §1, §2

L. monocytogenes = experiment: Diffusion technique, inhibition zone on agar; format: cell-based, Listeria monocytogenes; details: 1:10 dilution of aqueous hibiscus extract, 10 μL on plate, 35±1° C., 24 h
Method: as §1, §2

toxigenic fungus = details: in food; cited from earlier work
most pathogens = details: in food; cited from earlier work
almost all flora = details: in food, within reasonable elevated limits of initial load; cited from earlier work
S. Montevideo = details: 500 μl AITC; cited from earlier work
native flora of soybeans = experiment: Total count in non-inoculated soybean seed after disinfection; format: cell-based
Method: (§3) A comparison between the activity of aqueous extract and that of hypochlorite (1,000 and 10,000 ppm) was performed in non-inoculated seed. A total count was carried out in all cases.

native flora of alfalfa = experiment: Total count in non-inoculated alfalfa seed after disinfection; format: cell-based
Method: as §3

soybean seeds = experiment: Toxic effect on seed germination (FIGS. 1 to 6); format: in vivo, soybean seeds (Vigna radiata L)
Method: Therefore, a study comparing the toxic effect of hypochlorite (1,000 and 10,000 ppm), hibiscus vegetal extract and acetic acid was performed, yielding the results shown in FIGS. 1 to 6.

Salmonella sp = details: submerging sprouts into 100 and 200 ppm hypochlorite solutions; cited from earlier work
[1] = Table 8, hypochlorite 1,000 ppm
[2] = Table 10, hypochlorite 10,000 ppm
[3] = Table 9, hypochlorite 1,000 ppm
[4] = Table 11, hypochlorite 10,000 ppm

## penicillin
S. flexneri
  Inhibition diameter: 12 mm
P. aeruginosa
  Inhibition diameter: 13 mm
S. typhimurium
  Inhibition diameter: 15 mm
V. cholerae O1
  Inhibition diameter: 13 mm
S. sonnei
  Inhibition diameter: 14 mm
S. choleraesuis
  Inhibition diameter: 12 mm
Enterapathogenic E. coli
  Inhibition diameter: 11 mm
Enterotoxigenic E. coli
  Inhibition diameter: 12 mm
E. coli
  Inhibition diameter: 13 mm
Enteroinvasive E. coli
  Inhibition diameter: 12 mm
S. aureus
  Inhibition diameter: 13 mm
L. monocytogenes
  Inhibition diameter: 12 mm

## CC(=O)O [acetic acid]
Toxigenic fungus
  concentration that has effects on toxigenic fungus: 0.5%
Most pathogens
  concentration that acts on most pathogens: 0.1%
Almost all flora
  concentration that inhibits almost all flora: 1-2%

## C=CCN=C=S [AITC]
S. Montevideo
  decrease of S. Montevideo on tomato cuticle: 8 Log

## OCl [Hypochlorite, sodium hypochlorite]
Native flora of soybeans; [1]
  % of decrease: 6.95%
  Decrease: 0.18 Log10 CFU/g
Native flora of soybeans; Table 8, hypochlorite 1,000 ppm, initial 2.59 ± 1.19, N = 3
  Final concentration: 2.41 ± 1.08 Log10 CFU/g
Native flora of soybeans; [2]
  % of decrease: 17.31%
  Decrease: 0.40 Log10 CFU/g
Native flora of soybeans; Table 10, hypochlorite 10,000 ppm, initial 2.31 ± 0.89, N = 3
  Final concentration: 1.91 ± 1.23 Log10 CFU/g
Native flora of alfalfa; [3]
  % of decrease: 6.95%
  Decrease: 0.18 Log10 CFU/g
Native flora of alfalfa; Table 9, hypochlorite 1,000 ppm, initial 3.59, N = 3
  Final concentration: 3.41 ± 0.38 Log10 CFU/g
Native flora of alfalfa; [4]
  % of decrease: 17.31%
  Decrease: 0.40 Log10 CFU/g
Native flora of alfalfa; Table 11, hypochlorite 10,000 ppm, initial 3.30-3.31, N = 3
  Final concentration: 2.9 ± 0.56 Log10 CFU/g
Soybean seeds; FIGS. 2 and 4
  structural damage of seeds: structural damage
Soybean seeds; hypochlorite, FIG. 4 (10,000 ppm sodium hypochlorite solution)
  decrease of the sprout yield: 87.63%
Salmonella sp
  reduction of Salmonella sp in sprouts: 1 Log10
